These are literature values, as cited in patent US20190192552A1, “PHARMACEUTICAL COMPOSITIONS AND METHODS FOR TREATING KELOIDS, HY[…] AND WOUNDS, AND FOR PROVIDING IMPROVED SKIN CARE” (Cormedix Inc., priority 2017, published 2019).

In this data set the test system is Microbes. Particulars: microbes killed and resulting toxins inactivated.

Molecules are shown by their SMILES.

With `O=S1(=O)CCN(CN2CCS(=O)(=O)NC2)CN1` [taurolidine, 4,4′-methylene-bis(tetrahydro-1,2,4-thiadiazine)-1,1,1′,1′,-tetraoxide], the “destruction time in vitro” value was “approximately 30 minutes”.
